# From US10010560B2, “Small molecule HSP70 inhibitors” (THE TRUSTEES OF THE UNIVERSITY OF PENNSYLVANIA, priority 2014, dated 2018)
# How the values were obtained:
# [1] = system: E. coli DH5α; test: Growth of E. coli DH5α at 43° C.; type: cell-based
# Description: FIGS. 2A-2D illustrate the cytotoxicity of PET-16 to human tumor cells and its inhibition on E. coli growth. FIG. 2A is a line graph with data obtained from MTT assays of human melanoma cell lines treated with the indicated concentrations of PES or PET-16 for 72 h. The corresponding cell survival is normalized to vehicle (DMSO) treatment. Average and standard deviation (s.d.) from three independent experiments are shown. FIG. 2B are bar graphs of human melanoma (A875) cells and nontransformed human (IMR90) fibroblasts that were treated with DMSO, 10 μM PES or 10 μM PET-16 for 24 h. […] FIG. 2C is a line graph illustrating the growth of E. coli DH5α treated with different concentrations of PES or PET-16 for 6 h at 43° C. Error bars represent the s.d. of four independent experiments. FIG. 2D is a bar graph illustrating the growth of E. coli DH5α treated with DMSO, 30 μM PET-16 or 30 μM TPP for 6 h at 43° C. Error bars represent the s.d. of four independent experiments.
# FIGS. 9A-9H illustrate that PET-16 binds directly to ADP-bound HSP70 and is cytotoxic to human tumor cells. FIGS. 9A-9C are ITC assays of the interaction of PET-3C with purified human HSP70-ADP (A), human HSP70-ATP (B) and DnaK-ADP (C) proteins. The data are representative of three independent experiments. FIG. 9D is a line graph of an MTT assay of the human melanoma cell line 1205 Lu treated with the indicated concentrations of PET-16 (---) or PET-3C (-) for 72 h. The corresponding cell survival is normalized to the DMSO-treatment. Average and standard deviation (s.d.) from three independent experiments are shown. FIG. 9E is a line graph illustrating the growth of E. coli DH5α strain treated with different concentrations of PET-16 (black) or PET-3C (gray) for 6 h at 43° C. Error bars represent the s.d. of four independent experiments. FIG. 9F is a bar graph illustrating the growth of E. coli DH5α treated with DMSO, 30 μM PET-16, 30 μM PET-3C or 30 μM TPP for 6 h at 43° C. Error bars represent the s.d. of four independent experiments. […]
# [2] = system: melanoma tumor cell line WM989; test: Combination with BRAF inhibitor Vemurafenib, viability; type: cell-based, human
# From the text: FIG. 6 is a line graph illustrating that PET-16 synergizes with the BRAF inhibitor Vemurafenib to reduce the viability of the melanoma tumor cell line WM989 (▪). WM989 cells treated singularly with Vemurafenib are depicted by (●). No synergy was detected between Vemurafenib and PES-Cl.
# [3] = system: mouse melanoma cell line Yumm 1.7; test: In vivo melanoma model, Yumm 1.7; conditions: single agent, C57BL/6 mice
# Description: FIGS. 14A and 14B provide evidence that PET-16 impairs melanoma growth in vivo as a single agent. A well-recognized pulmonary metastatic model was utilized in which immunocompetent, wild-type C57BL/6 mice were injected with the metastatic mouse melanoma cell line Yumm 1.7, as indicated. […] FIG. 14A is a summary of the steps entailed in the model.
# [4] = target: HSP70 (Homo sapiens, UniProt P0DMV8); test: Immunoprecipitation of HSP70 and co-precipitating proteins; type: cell-based; parameters: endogenous in cells; host or cells: A875 and 451 Lu human melanoma cells; conditions: IP-WB, A875 or 451 Lu cells
# HSP70, sequence (P0DMV8 whole entry): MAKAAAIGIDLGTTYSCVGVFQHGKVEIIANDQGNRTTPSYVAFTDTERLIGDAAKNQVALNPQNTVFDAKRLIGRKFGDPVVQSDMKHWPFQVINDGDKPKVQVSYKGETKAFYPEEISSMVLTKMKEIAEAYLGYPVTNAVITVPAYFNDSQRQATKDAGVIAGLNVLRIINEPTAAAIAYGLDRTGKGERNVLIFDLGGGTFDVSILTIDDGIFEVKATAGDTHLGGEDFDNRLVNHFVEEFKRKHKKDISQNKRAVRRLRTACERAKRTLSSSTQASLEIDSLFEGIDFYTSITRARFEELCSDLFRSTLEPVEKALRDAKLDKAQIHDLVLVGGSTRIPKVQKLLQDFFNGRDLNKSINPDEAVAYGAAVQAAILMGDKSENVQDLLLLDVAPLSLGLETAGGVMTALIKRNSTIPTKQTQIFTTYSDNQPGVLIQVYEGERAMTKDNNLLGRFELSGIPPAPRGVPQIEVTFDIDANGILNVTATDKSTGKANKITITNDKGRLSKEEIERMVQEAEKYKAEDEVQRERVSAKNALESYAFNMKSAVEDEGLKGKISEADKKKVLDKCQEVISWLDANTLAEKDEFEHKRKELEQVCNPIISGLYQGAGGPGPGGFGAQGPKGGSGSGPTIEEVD
# From the text: FIGS. 4A-4L illustrate that PET-16 impairs proteostasis. […] There is a general absence of obvious nuclei in PET-16 treated tumor cells. […] FIGS. 4D and 4E are gels of whole-cell extracts (WCE) prepared from human melanoma A875 (D) or 451 Lu (E) cells treated with DMSO, PES or PET-16 that were immunoprecipitated using an anti-HSP70 antibody. The excised band of about 70 kDa shown in the Coomassie gel is HSP70, as confirmed by liquid chromatography—tandem mass spectrometry analysis. FIGS. 4F-4I are western blots of cell lines were treated with DMSO, PES or PET-16 for 24 h and immunoblotted for the indicated proteins. FIG. 4J are western blots of indicated melanomas pretreated with DMSO, PES or PET-16, followed by treatment with IL-6. Cell extracts were immunoblotted for the proteins indicated. Inhibition of IL-6 induced STAT3 and STAT1 phosphorylation by PET-16. FIG. 4K is a western blot analysis indicating altered processing of cathepsin L from the larger precursor form to the smaller mature form in the indicated cells following PET-16 treatment for 24 h. FIG. 4L is a western blot of the human melanoma 451 Lu cells treated with DMSO, PES or PET-16 for 24 h. Cells were harvested in 1% NP40-containing lysis buffer, fractionated into detergent-soluble and detergent-insoluble preparations, and assayed by western blot for ubiquitin. […]
structure (smiles),measurement,setting,value
"C(#C[P+](c1ccccc1)(c1ccccc1)c1ccccc1)c1ccccc1.[Br-] [PET-16, triphenyl(phenylethynyl)phosphonium bromide]",E. coli phenotype,[1],cell filamentation and reduced viability
same,effect on growth of E. coli,[1]; 6 h at 43° C.,impaired bacterial growth
same,synergy with PLX4032 (Vemurafenib),[2],able to synergize
same,melanoma growth in vivo,[3],inhibits melanoma xenograft growth
same,interactions between HSP70 and client/substrate proteins,[4],loss of interactions
